# Test: Log P by HPLC on reversed phase columns (EEC directive 79/831 Annex V.A8; methods [a], [b], [c])
# Assay type: physicochemical
# Details: not given
# Procedure: Measurement of Log P values was performed according to EEC directive 79/831 Annex V.A8 by HPLC (High Performance Liquid Chromatography) on reversed phase columns with the following methods: • ^[a] Log P value is determined by measurement of LC-UV, in an acidic range, with 0.1% formic acid in water and acetonitrile as eluent (linear gradient from 10% acetonitrile to 95% acetonitrile). • ^[b] Log P value is determined by measurement of LC-UV, in a neutral range, with 0.001 molar ammonium acetate solution in water and acetonitrile as eluent (linear gradient from 10% acetonitrile to 95% acetonitrile). • ^[c] Log P value is determined by measurement of LC-UV, in an acidic range, with 0.1% phosphoric acid and acetonitrile as eluent (linear gradient from 10% acetonitrile to 95% acetonitrile).
# If more than one Log P value is available within the same method, all the values are given and separated by “+”.
# Calibration was done with straight-chain alkan2-ones (with 3 to 16 carbon atoms) with known Log P values (measurement of Log P values using retention times with linear interpolation between successive alkanones). Lambda-max-values were determined using UV-spectra from 200 nm to 400 nm and the peak values of the chromatographic signals.
row,LogP,Structure (SMILES)
1,1.94^[a],N#Cc1cncn1CC(O)(c1c(F)cccc1F)C1(F)CC1 (stereo not drawn) [I-520]
2,2.46^[a],CC(C)C(O)(Cn1cncc1C#N)c1ccccc1C(F)(F)F (stereo not drawn) [I-345]
3,2.49^[a],N#Cc1cncn1CC(O)(c1c(F)cc(F)cc1Br)C1(Cl)CC1 (stereo not drawn) [I-566]
4,3.06^[a],O=C(Cn1cncc1F)c1ccc(Oc2ccc(S(F)(F)(F)(F)F)cc2)nc1C(F)(F)F [IX-136]
5,2.52^[a],CC(C)CC#CC(O)(CC1CC1)Cn1cncc1C#N (stereo not drawn) [I-451]
6,2.52^[a],Cc1ccc(C#CC(O)(Cn2cncc2C#N)C2(F)CC2)cc1 (stereo not drawn) [I-373]
7,2.92^[a],N#Cc1cncn1CC(O)(c1ccc(C#CC2CC2)cc1F)C1(F)CC1 (stereo not drawn) [I-643]
8,2.47^[a],N#Cc1cncn1CC(O)(c1ccc(F)cc1C(F)(F)F)C1CC1 (stereo not drawn) [I-467]
9,3.78^[a],N#Cc1cncn1CC(O)(CC1CCCCC1)c1ccc(F)cc1Br (stereo not drawn) [I-465]
10,2.61^[a],N#Cc1cncn1CC(O)(c1cc(Cl)c(F)cc1Br)C1(F)CC1 (stereo not drawn) [I-687]
11,2.29^[a],N#Cc1cncn1CC(O)(c1cc(F)cc(F)c1F)C1(Cl)CC1 (stereo not drawn) [I-620]
12,3.39^[a],C[Si](C)(C)CC(O)(Cn1cncc1C#N)c1ccccc1Cl (stereo not drawn) [I-306]
13,2.76^[a],N#Cc1cncn1CC(O)(c1cc(Cl)cc(Cl)c1F)C1(Cl)CC1 (stereo not drawn) [I-609]
14,3.39^[a],CC(C)(C)c1ccc(C(O)(Cn2cncc2C#N)C2(Cl)CC2)c(Cl)c1 (stereo not drawn) [I-354]
15,2.28^[a],N#Cc1cncn1CC(O)(c1ccc(F)cc1F)C1(Cl)CC1 (stereo not drawn) [I-355]
16,3.70^[a],C[Si](C)(CCC(O)(Cn1cncc1C#N)C1(Cl)CC1)c1ccccc1 (stereo not drawn) [I-667]
17,2.44^[a],N#Cc1cncn1CC(O)(c1cc(Cl)cc(F)c1F)C1(F)CC1 (stereo not drawn) [I-570]
18,2.73^[a],N#Cc1cncn1CC(O)(c1ccc(Br)cc1Cl)C1(Cl)CC1 (stereo not drawn) [I-333]
19,2.92^[a],N#Cc1cncn1CC(O)(C#CC1CCc2ccccc21)C1(Cl)CC1 (stereo not drawn) [I-602]
20,2.18^[a],N#Cc1cncn1CC(O)(CC1CC1)c1cc(F)ccc1F (stereo not drawn) [I-515]
21,2.73^[a],CC(C)(C)C(O)(Cn1cncc1C#N)c1ccc(Cl)cn1 (stereo not drawn) [I-528]
22,2.21^[a],CCCC(O)(Cn1cncc1C#N)c1ccc(F)cc1 (stereo not drawn) [I-378]
23,4.24^[a],C[Si](C)(C)CCC(O)(Cn1cncc1C(F)(F)F)C1(Cl)CC1 (stereo not drawn) [I-691]
24,2.44^[a],N#Cc1cncn1CC(O)(C=CCC(Cl)CCl)C1(F)CC1 (stereo not drawn) [I-680]
25,3.52^[a],CCCC#Cc1ccc(C(O)(Cn2cncc2C#N)C2(F)CC2)c(Cl)c1 (stereo not drawn) [I-641]

row,LogP,Structure (SMILES)
1,3.00^[a],CCCCCCC(O)(Cn1cncc1C#N)C1(F)CC1 (stereo not drawn) [I-399]
2,2.88^[a],CC(C)(C)C(O)(Cn1cncc1C#N)c1cc(F)cc(Cl)c1 (stereo not drawn) [I-495]
3,1.98^[a],N#Cc1cncn1CC(O)(c1ccc(F)cc1)C1CC1 (stereo not drawn) [I-411]
4,2.43^[a],N#Cc1cncn1CC(O)(c1ccc(Br)cc1F)C1(F)CC1 (stereo not drawn) [I-403]
5,2.52^[a],N#Cc1cncn1CC(O)(c1cc(Cl)cc(F)c1Cl)C1(F)CC1 (stereo not drawn) [I-571]
6,2.50^[a],N#Cc1cncn1CC(O)(c1ccc(Cl)cc1F)C1CC1 (stereo not drawn) [I-413]
7,2.94^[a],Cn1ccc2cc(C(O)(Cn3cncc3C#N)CC(C)(C)C)ccc21 (stereo not drawn) [I-377]
8,2.08^[a],N#Cc1cncn1CC(O)(c1ccc(F)cc1F)C1(F)CC1 (stereo not drawn) [I-352]
9,2.77^[a],N#Cc1cncn1CC(O)(c1ccc(Cl)cc1Cl)C1CC1 (stereo not drawn) [I-304]
10,2.70^[a],N#Cc1cncn1CC(O)(c1ccc(Br)cc1Cl)C1(Cl)CC1 (stereo not drawn) [I-648]
11,2.51^[a],N#Cc1cncn1CC(O)(c1ccc(Cl)c(Cl)c1)C1(F)CC1 (stereo not drawn) [I-487]
12,2.52^[a],N#Cc1cncn1CC(O)(c1ccc(F)c(Cl)c1F)C1(Cl)CC1 (stereo not drawn) [I-627]
13,2.63^[a],N#Cc1cncn1CC(O)(c1cc(F)c(Br)cc1Cl)C1(F)CC1 (stereo not drawn) [I-682]
14,3.74^[a],N#Cc1cncn1CC(O)(c1ccc(C#CC2CCCC2)cc1F)C1(F)CC1 (stereo not drawn) [I-644]
15,2.18^[a],N#Cc1cncn1CC(O)(c1ccc(F)cc1F)C1CC1 (stereo not drawn) [I-410]
16,2.78^[a],N#Cc1cncn1CC(O)(c1ccc(Cl)cc1C(F)(F)F)C1CC1 (stereo not drawn) [I-464]
17,3.13^[a],CCCC(O)(Cn1cncc1C#N)c1ccc(Cl)cc1Br (stereo not drawn) [I-409]
18,2.56^[a],N#Cc1cncn1CC(O)(CC1CC1)c1ccc(Cl)c(F)c1 (stereo not drawn) [I-486]
19,2.82^[a],CCCC(C)C#CC(O)(Cn1cncc1C#N)C1(Cl)CC1 (stereo not drawn) [I-658]
20,2.49^[a],N#Cc1cncn1CC(O)(c1cc(Br)ccc1F)C1(Cl)CC1 (stereo not drawn) [I-632]
21,3.41^[a],CCCC(C)C=CC(O)(Cn1cncc1C#N)C1(Cl)CC1 (stereo not drawn) [I-689]
22,3.03^[a],N#Cc1cncn1CC(O)(c1cc(Cl)c(Cl)c(Cl)c1)C1(F)CC1 (stereo not drawn) [I-534]
23,4.03^[a],C[Si](C)(C)C#Cc1ccc(C(O)(Cn2cncc2C#N)C2(Cl)CC2)c(F)c1 (stereo not drawn) [I-650]
24,2.12^[a],N#Cc1cncn1CC(O)(c1cccc(F)c1Cl)C1(F)CC1 (stereo not drawn) [I-555]
25,2.28^[a],N#Cc1cncn1CC(O)(c1c(F)ccc(Cl)c1F)C1(F)CC1 (stereo not drawn) [I-587]

# Second part, the compound before the results:
row,Structure (SMILES),LogP
1,COC(Cn1cncc1F)c1ccc(Oc2ccc(Cl)cc2)cc1C(F)(F)F (stereo not drawn) [I-108],3.16^[a]
2,N#Cc1cncn1CC(O)c1ccc(Cl)cc1Cl (stereo not drawn) [I-144],2.12^[a]
3,Cc1ccccc1C(O)(Cn1cncc1C#N)C1(Cl)CC1 (stereo not drawn) [I-278],1.29^[a]
4,OC(Cn1cncc1F)c1cnc(Oc2ccc(C(F)(F)F)cc2)cc1Br (stereo not drawn) [I-122],1.94^[a]
5,OC(Cn1cncc1F)c1ccc(Oc2ccc(C(F)F)cc2)nc1Cl (stereo not drawn) [I-102],1.80^[a]
6,OC(Cn1cncc1Br)c1ccc(Oc2ccc(Br)cc2)cc1C(F)(F)F (stereo not drawn) [I-26],3.02^[a]
7,CC(=O)c1cncn1CC(C)(O)c1ccc(Oc2ccc(C(F)(F)F)cc2)cc1C(F)(F)F (stereo not drawn) [I-207],3.27^[a]
8,CCOC(Cn1cncc1Cl)c1ccc(Oc2ccc(Br)cc2)cc1Br (stereo not drawn) [I-58],4.21^[a]
9,N#Cc1cncn1CC(O)c1ccc(Oc2ccc(Cl)nc2)cc1Cl (stereo not drawn) [I-43],2.37^[a]
10,N#Cc1cncn1CC(O)c1cnc(Oc2ccc(Br)nc2)cc1C(F)(F)F (stereo not drawn) [I-153],2.41^[a]
11,CCCCC(O)(Cn1cncc1C#N)c1ccccc1F (stereo not drawn) [I-287],2.51^[a]
12,OC(Cn1cncc1Br)c1ccc(Oc2ccc(Cl)cc2)cc1Cl (stereo not drawn) [I-14],2.60^[a]
13,CC(O)(Cn1cncc1C#N)c1ccc(Oc2ccc(Br)cc2)cc1Br (stereo not drawn) [I-219],3.73^[a]
14,CC(O)(Cn1cncc1F)c1cnc(Oc2ccc(C(F)(F)F)cc2)cc1Cl (stereo not drawn) [I-244],2.13^[a]
15,CC(C)CC(O)(Cn1cncc1C#N)c1ccc(Cl)cc1Cl (stereo not drawn) [I-303],3.39^[a]
16,COC(Cn1cncc1Br)c1ccc(Oc2ccc(Cl)cc2)cc1Br (stereo not drawn) [I-50],3.59^[a]
17,CC(O)(Cn1cncc1Cl)c1ccc(Oc2ccc(I)cc2)cc1Cl (stereo not drawn) [I-166],3.04^[a]
18,N#Cc1cncn1CC(O)c1ccc(Oc2ccc(Cl)cc2)cc1C(F)(F)F (stereo not drawn) [I-41],3.35^[a]
19,N#Cc1cncn1CC(O)c1ccc(Oc2c(F)cc(Cl)cc2F)nc1C(F)(F)F (stereo not drawn) [I-135],3.23^[a]

row,Structure (SMILES),LogP
1,CC(O)(Cn1cncc1Br)c1ccc(Oc2ccc(Br)cc2)cc1Br (stereo not drawn) [I-184],3.06^[a]
2,CC(C)(C)CC(O)(Cn1cncc1C#N)c1ccc(OC(F)(F)F)cc1 (stereo not drawn) [I-275],3.50^[a]
3,COC(Cn1cncc1C#N)c1ccc(Oc2ccc(Br)cc2)cc1Br (stereo not drawn) [I-63],4.20^[a]
4,N#Cc1ccc(Oc2ccc(C(O)Cn3cncc3Cl)c(Cl)c2)cc1 (stereo not drawn) [I-06],2.03^[a]
5,CCCCCC(O)(Cn1cncc1C#N)c1ccc(Cl)cc1 (stereo not drawn) [I-286],3.10^[a]
6,OC(Cn1cncc1F)c1ccc(Oc2ccc(Cl)cc2)cc1Cl (stereo not drawn) [I-46],2.28^[a]
7,COc1cc(F)ccc1C(O)Cn1cncc1Cl (stereo not drawn) [I-07],1.07^[a]
8,CCCCCC(O)(Cn1cncc1C#N)c1ccc(Cl)cc1Cl (stereo not drawn) [I-302],3.83^[a]
9,N#Cc1cncn1CC(O)c1ccc(Oc2ccc(Br)cc2)cc1Br (stereo not drawn) [I-47],3.33^[a]
10,N#Cc1cncn1CC(O)(c1ccc(C(F)(F)F)cc1Cl)C1(Cl)CC1 (stereo not drawn) [I-264],2.80^[a]
11,COC(Cn1cncc1C#N)c1ccc(Oc2ccccc2)cc1F (stereo not drawn) [I-100],3.23^[a]
12,N#Cc1cncn1CC(O)c1ccc(Oc2ccc(Br)cn2)cc1Cl (stereo not drawn) [I-70],2.63^[a]
13,CC(O)(Cn1cncc1C#N)c1cnc(Oc2ccc(Cl)cc2)cc1C(F)(F)F (stereo not drawn) [I-249],3.44^[a]
14,COC(Cn1cncc1C#N)c1ccc(Oc2ccc(Cl)cc2)cc1C(F)F (stereo not drawn) [I-74],3.76^[a]
15,COc1ccc(Oc2ccc(C(C)(O)Cn3cncc3Cl)c(Cl)n2)c(Cl)c1 (stereo not drawn) [I-163],2.30^[a]
16,CCCCC(O)(Cn1cncc1C#N)c1ccc(C(F)(F)F)cc1Cl (stereo not drawn) [I-266],3.65^[a]
17,CCOC(Cn1cncc1C#N)c1ccc(Oc2ccc(Cl)cc2)cc1C(F)(F)F (stereo not drawn) [I-84],4.54^[a]
18,N#Cc1cncn1CC(O)c1ccc(Oc2ccc(S(F)(F)(F)(F)F)cc2)nc1C(F)(F)F (stereo not drawn) [I-146],3.35^[a]

# Same assay, conditions: reversed phase HPLC column; method [a]: LC-UV, acidic range, 0.1% formic acid in water and acetonitrile as eluent (linear gradient from 10% to 95% acetonitrile)
row,Structure (SMILES),chromatographic logP
1,COc1ccc(Oc2ccc(C(=O)Cn3cncc3Cl)c(Cl)n2)c(Cl)c1 [IX-24],2.64
2,N#Cc1cncn1CC(=O)c1ccco1 [IX-146],0.92
3,O=C(Cn1cncc1Br)c1ccc(Oc2ccc(I)cc2)cc1F [IX-48],3.19
